# Molecular target: T1, PI3Kδ (Homo sapiens, UniProt O00329)
# T1 construct: Full length p110 subunits of PI3k α, β and δ, N-terminally labeled with polyHis tag; polyHis (N); made in house; host or cells: Sf9 insect cells (baculovirus)
# Test: PI3Kδ Alphascreen assay
# Type: biochemical
# Method: Full length p110 subunits of PI3k α, β and δ, N-terminally labeled with polyHis tag, were coexpressed with p85 with Baculo virus expression vectors in sf9 insect cells. P110/p85 heterodimers were purified by sequential Ni-NTA, Q-HP, Superdex-100 chromatography. Purified α, β and δ isozymes were stored at −20° C. in 20 mM Tris, pH 8, 0.2M NaCl, 50% glycerol, 5 mM DTT, 2 mM Na cholate. […] The γ isozyme was purified by sequential Ni-NTA, Superdex-200, Q-HP chromatography. The γ isozyme was stored frozen at −80° C. in NaH2PO4, pH 8, 0.2M NaCl, 1% ethylene glycol, 2 mM β-mercaptoethanol.
# A PI3K Alphascreen® assay (PerkinElmer, Waltham, Mass.) was used to measure the activity of a panel of four phosphoinositide 3-kinases: PI3Kα, PI3Kβ, PI3Kγ, and PI3Kδ. Enzyme reaction buffer was prepared using sterile water (Baxter, Deerfield, Ill.) and 50 mM Tris HCl pH 7, 14 mM MgCl2, 2 mM sodium cholate, and 100 mM NaCl. 2 mM DTT was added fresh the day of the experiment. The Alphascreen buffer was made using sterile water and 10 mM Tris HCl pH 7.5, 150 mM NaCl, 0.10% Tween 20, and 30 mM EDTA. 1 mM DTT was added fresh the day of the experiment. Compound source plates used for this assay were 384-well Greiner clear polypropylene plates containing test compounds at 5 mM and diluted 1:2 over 22 concentrations. Columns 23 and 24 contained only DMSO as these wells comprised the positive and negative controls, respectively. Source plates were replicated by transferring 0.5 uL per well into 384-well Optiplates (PerkinElmer, Waltham, Mass.).
# Each PI3K isoform was diluted in enzyme reaction buffer to 2× working stocks. […] PI(4,5)P2 (Echelon Biosciences, Salt Lake City, Utah) was diluted to 10 μM and ATP was diluted to 20 μM. This 2× stock was used in the assays for PI3Kα and PI3Kβ. For assay of PI3Kγ and PI3Kδ, PI(4,5)P2 was diluted to 10 μM and ATP was diluted to 8 μM to prepare a similar 2× working stock. Alphascreen reaction solutions were made using beads from the anti-GST Alphascreen kit (PerkinElmer, Waltham, Mass.). Two 4× working stocks of the Alphascreen reagents were made in Alphascreen reaction buffer. In one stock, biotinylated-IP4 (Echelon Biosciences, Salt Lake City, Utah) was diluted to 40 nM and streptavidin-donor beads were diluted to 80 μg/mL. In the second stock, PIP3-binding protein (Echelon Biosciences, Salt Lake City, Utah) was diluted to 40 nM and anti-GST-acceptor beads were diluted to 80 μg/mL.
# 10 μL/well of the appropriate substrate 2× stock (containing 20 μM ATP for the PI3Kα and β assays and containing 8 μM ATP for the PI3Kγ and δ assays) was then added to Columns 1-24 of all plates. Plates were then incubated at room temperature for 20 minutes. In the dark, 10 μL/well of the donor bead solution was added to columns 1-24 of the plates to quench the enzyme reaction. The plates were incubated at room temperature for 30 minutes. Still in the dark, 10 μL/well of the acceptor bead solution was added to columns 1-24 of the plates. The plates were then incubated in the dark for 1.5 hours. The plates were read on an Envision multimode Plate Reader (PerkinElmer, Waltham, Mass.) using a 680 nm excitation filter and a 520-620 nm emission filter.
# T1 sequence (O00329 whole entry): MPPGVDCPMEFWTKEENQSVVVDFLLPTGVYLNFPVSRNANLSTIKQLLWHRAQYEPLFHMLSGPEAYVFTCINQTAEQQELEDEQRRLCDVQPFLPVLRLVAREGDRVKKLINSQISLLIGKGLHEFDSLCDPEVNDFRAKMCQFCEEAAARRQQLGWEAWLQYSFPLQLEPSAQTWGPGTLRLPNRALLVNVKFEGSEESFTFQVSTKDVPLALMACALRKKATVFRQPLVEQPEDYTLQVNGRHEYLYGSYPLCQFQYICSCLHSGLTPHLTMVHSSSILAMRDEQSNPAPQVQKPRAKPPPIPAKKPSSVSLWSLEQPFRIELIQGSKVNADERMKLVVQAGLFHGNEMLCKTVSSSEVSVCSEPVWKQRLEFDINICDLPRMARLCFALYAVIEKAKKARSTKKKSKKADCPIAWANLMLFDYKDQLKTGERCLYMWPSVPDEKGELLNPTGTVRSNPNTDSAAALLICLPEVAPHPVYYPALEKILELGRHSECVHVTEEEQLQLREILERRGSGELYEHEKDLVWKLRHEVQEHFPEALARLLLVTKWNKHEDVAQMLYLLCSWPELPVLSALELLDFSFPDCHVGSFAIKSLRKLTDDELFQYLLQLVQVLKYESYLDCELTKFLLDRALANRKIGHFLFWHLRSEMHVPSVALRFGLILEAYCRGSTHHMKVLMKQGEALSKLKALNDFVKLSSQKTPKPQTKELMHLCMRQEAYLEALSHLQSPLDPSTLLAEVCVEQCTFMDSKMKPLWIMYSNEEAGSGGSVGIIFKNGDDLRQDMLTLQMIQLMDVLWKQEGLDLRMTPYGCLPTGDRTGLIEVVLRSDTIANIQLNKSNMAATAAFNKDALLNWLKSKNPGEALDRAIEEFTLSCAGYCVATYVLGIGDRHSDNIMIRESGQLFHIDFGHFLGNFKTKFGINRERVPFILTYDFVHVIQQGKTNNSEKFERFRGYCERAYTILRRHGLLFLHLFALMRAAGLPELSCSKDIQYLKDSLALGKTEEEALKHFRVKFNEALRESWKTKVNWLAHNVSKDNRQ
# T1 sequence (P27986 whole entry partner): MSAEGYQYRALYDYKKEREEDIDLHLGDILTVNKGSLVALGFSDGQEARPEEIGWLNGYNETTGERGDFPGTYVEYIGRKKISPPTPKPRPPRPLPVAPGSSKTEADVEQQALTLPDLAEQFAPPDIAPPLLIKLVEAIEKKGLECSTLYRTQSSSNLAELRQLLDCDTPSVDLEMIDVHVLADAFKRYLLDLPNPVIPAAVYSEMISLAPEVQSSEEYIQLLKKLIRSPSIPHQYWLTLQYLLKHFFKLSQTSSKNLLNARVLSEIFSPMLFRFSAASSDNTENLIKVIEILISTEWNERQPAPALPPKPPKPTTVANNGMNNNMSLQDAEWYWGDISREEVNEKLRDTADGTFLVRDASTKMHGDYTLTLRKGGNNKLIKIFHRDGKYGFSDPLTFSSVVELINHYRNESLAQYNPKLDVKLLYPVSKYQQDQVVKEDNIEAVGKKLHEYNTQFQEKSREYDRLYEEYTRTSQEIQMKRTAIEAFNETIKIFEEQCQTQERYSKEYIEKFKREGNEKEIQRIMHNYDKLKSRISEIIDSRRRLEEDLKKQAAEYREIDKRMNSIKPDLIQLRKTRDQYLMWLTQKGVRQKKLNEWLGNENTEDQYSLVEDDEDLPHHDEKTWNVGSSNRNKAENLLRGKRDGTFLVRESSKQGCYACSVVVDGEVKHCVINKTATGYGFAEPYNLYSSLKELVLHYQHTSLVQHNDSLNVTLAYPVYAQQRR
row,Ki [nM],Structure (SMILES)
1,0.741,C[C@H](Nc1ncnc(N)c1C#N)c1nc2ccc(F)cc2c(S(C)(=O)=O)c1-c1ccccc1 [4-amino-6-(((1S)-1-(6-fluoro-4-(methylsulfonyl)-3-phenyl-2-quinolinyl)ethyl)amino)-5-pyrimidinecarbonitrile]
2,74.2,CC(Nc1ncnc(N)c1C#N)c1nc2ccc(F)cc2c(C(=O)O)c1-c1ccccc1 (centres unmarked) [2-(1-(6-Amino-5-cyanopyrimidin-4-ylamino)ethyl)-6-fluoro-3-phenylquinoline-4-carboxylic acid]
3,0.61,COCCNc1c(-c2ccccc2)c([C@H](C)Nc2ncnc(N)c2C#N)nc2ccc(F)cc12 [4-Amino-6-(((1S)-1-(6-fluoro-4-((2-methoxyethyl)amino)-3-phenyl-2-quinolinyl)ethyl)amino)-5-pyrimidinecarbonitrile]
4,1.3,CC(Nc1ncnc(N)c1C#N)c1nc2ccc(F)cc2c(S(C)(=O)=O)c1-c1ccccc1 (centres unmarked) [4-amino-6-(1-(6-fluoro-4-(methylsulfonyl)-3-phenylquinolin-2-yl)ethylamino)pyrimidine-5-carbonitrile]
5,1.3,C[C@H](Nc1ncnc(N)c1C#N)c1nc2cccc(F)c2c(S(C)(=O)=O)c1-c1ccccc1 [(S)-4-Amino-6-(1-(5-fluoro-4-(methylsulfonyl)-3-phenylquinolin-2-yl)ethylamino)pyrimidine-5-carbonitrile]
6,1.12,C[C@H](Nc1ncnc2[nH]cnc12)c1nc2ccc(F)cc2c(S(C)(=O)=O)c1-c1ccccc1 [(S)—N-(1-(6-fluoro-4-(methylsulfonyl)-3-phenylquinolin-2-yl)ethyl)-9H-purin-6-amine]
7,271,COc1c(-c2ccccc2)c([C@@H](C)Nc2ncnc(N)c2C#N)nc2ccc(F)cc12 [(R)-4-amino-6-(1-(6-fluoro-4-methoxy-3-phenylquinolin-2-yl)ethylamino)pyrimidine-5-carbonitrile]
8,1.38,CC(Nc1ncnc(N)c1C#N)c1nc2ccc(F)cc2c(CS(C)(=O)=O)c1-c1ccccc1 (centres unmarked) [4-Amino-6-(1-(6-fluoro-4-(methylsulfonylmethyl)-3-phenylquinolin-2-yl)-ethylamino)pyrimidine-5-carbonitrile]
9,0.463,CC(Nc1ncnc(N)c1C#N)c1nc2ccc(F)cc2c(NCCS(C)(=O)=O)c1-c1ccccc1 (centres unmarked) [4-Amino-6-((1-(6-fluoro-4-((2-(methylsulfonyl)ethyl)amino)-3-phenyl-2-quinolinyl)ethyl)amino)-5-pyrimidinecarbonitrile]
10,410,C[C@@H](Nc1ncnc2[nH]cnc12)c1nc2ccc(F)cc2c(S(C)(=O)=O)c1-c1ccccc1 [(R)—N-(1-(6-fluoro-4-(methylsulfonyl)-3-phenylquinolin-2-yl)ethyl)-9H-purin-6-amine]

# Continued, compound first:
row,Structure (SMILES),Ki [nM]
1,"CC(Nc1ncnc(N)c1C#N)c1nc2cccc(Cl)c2cc1-c1ccccn1 [4-amino-6-(((1S, 1R)-1-(5-chloro-3-(2-pyridinyl)-2-quinolinyl)ethyl)-amino)-5-pyrimidinecarbonitrile]",1.6
2,CC(Nc1ncnc(N)c1C#N)c1nc2ccc(F)cc2c(C(=O)N2CCN(C)CC2)c1-c1ccccc1 (centres unmarked) [4-Amino-6-((1-(6-fluoro-4-((4-methyl-1-piperazinyl)carbonyl)-3-phenyl-2-quinolinyl)ethyl)amino)-5-pyrimidinecarbonitrile],1.32
3,CC(Nc1ncnc2[nH]cnc12)c1nc2cccc(F)c2c(S(C)(=O)=O)c1-c1ccccc1 (centres unmarked) [N-(1-(5-Fluoro-4-(methylsulfonyl)-3-phenylquinolin-2-yl)ethyl)-9H-purin-6-amine],2.24
4,"C[C@@H](Nc1ccnc(N)n1)c1nc2ccc(F)cc2cc1-c1ccccn1 [N~4~-((1R)-1-(6-fluoro-3-(2-pyridinyl)-2-quinolinyl)ethyl)-2,4-pyrimidinediamine]",5520
5,N#Cc1c(N)ncnc1NCc1nc2cccc(F)c2cc1-c1cccc(F)c1 [4-Amino-6-((5-fluoro-3-(3-fluorophenyl)quinolin-2-yl)methylamino)pyrimidine-5-carbonitrile],102
6,C[C@H](Nc1ncnc(N)c1C#N)c1nc2ccc(F)cc2c(C(=O)NCCO)c1-c1ccccn1 [(S)-2-(1-(6-Amino-5-cyanopyrimidin-4-ylamino)ethyl)-6-fluoro-N-(2-hydroxyethyl)-3-(pyridin-2-yl)quinoline-4-carboxamide],7.57
7,C[C@H](Nc1ncnc(N)c1C#N)c1nc2cccc(Cl)c2cc1-c1ccccn1 [4-Amino-6-(((1S)-1-(5-chloro-3-(2-pyridinyl)-2-quinolinyl)ethyl)amino)-5-pyrimidinecarbonitrile],0.4
8,CC(Nc1ncnc(N)c1C#N)c1nc2ccc(F)cc2c(C(=O)NCC2CC2)c1-c1ccccc1 (centres unmarked) [2-(1-(6-Amino-5-cyanopyrimidin-4-ylamino)ethyl)-N-(cyclopropylmethyl)-6-fluoro-3-phenylquinoline-4-carboxamide],5.15
9,N#Cc1c(N)ncnc1NCc1nc2c(F)cccc2cc1-c1ccccn1 [4-Amino-6-((8-fluoro-3-(pyridin-2-yl)quinolin-2-yl)methyl-amino)pyrimidine-5-carbonitrile],262
10,COCCNc1c(-c2ccccc2)c([C@@H](C)Nc2ncnc(N)c2C#N)nc2ccc(F)cc12 [4-Amino-6-(((1R)-1-(6-fluoro-4-((2-methoxyethyl)amino)-3-phenyl-2-quinolinyl)ethyl)amino)-5-pyrimidinecarbonitrile],62.2
11,CC(Nc1ncnc(N)c1C#N)c1nc2ccc(F)cc2c(C(=O)NCCN2CCOCC2)c1-c1ccccc1 (centres unmarked) [2-(1-((6-Amino-5-cyano-4-pyrimidinyl)amino)ethyl)-6-fluoro-N-(2-(4-morpholinyl)ethyl)-3-phenyl-4-quinolinecarboxamide],1.02
12,CC(Nc1ncnc(N)c1C#N)c1nc2ccc(F)cc2c([S+]([O-])CCO)c1-c1ccccc1 (stereo in doubt) [4-Amino-6-(1-(6-fluoro-4-((R)-2-hydroxyethylsulfinyl)-3-phenylquinolin-2-yl)ethylamino)pyrimidine-5-carbonitrile],2.48
13,C[C@H](Nc1ncnc2[nH]cnc12)c1nc2ccc(F)cc2cc1-c1ccccn1 [(S)—N-(1-(6-Fluoro-3-(pyridin-2-yl)quinolin-2-yl)ethyl)-9H-purin-6-amine],4.15
14,CC(Nc1ncnc(N)c1C(N)=O)c1nc2ccc(F)cc2c(C(=O)O)c1-c1ccccc1 (centres unmarked) [2-(1-(6-amino-5-carbamoylpyrimidin-4-ylamino)ethyl)-6-fluoro-3-phenylquinoline-4-carboxylic acid],7.16
15,CC(Nc1ncnc(N)c1C#N)c1nc2ccc(F)cc2c(N2CCOCC2)c1-c1ccccn1 (centres unmarked) [4-amino-6-(1-(6-fluoro-4-morpholino-3-(pyridin-2-yl)quinolin-2-yl)ethyl-amino)pyrimidine-5-carbonitrile],1.19
16,C[C@@H](Nc1ncnc(N)c1C#N)c1nc2cccc(Cl)c2cc1-c1ccccn1 [4-amino-6-(((1R)-1-(5-chloro-3-(2-pyridinyl)-2-quinolinyl)ethyl)amino)-5-pyrimidinecarbonitrile],57.9
17,CC(Nc1ncnc(N)c1C#N)c1nc2ccc(F)cc2c(C(=O)N2CCOCC2)c1-c1ccccc1 (centres unmarked) [4-Amino-6-((-1-(6-fluoro-4-(4-morpholinylcarbonyl)-3-phenyl-2-quinolinyl)-ethyl)amino)-5-pyrimidinecarbonitrile],2.88
18,"CC(Nc1ncnc(N)c1C#N)c1nc2ccncc2cc1-c1ccccn1 (racemic) [4-Amino-6-(((1S, 1R)-1-(3-(2-pyridinyl)-1,6-naphthyridin-2-yl)ethyl)amino)-5-pyrimidinecarbonitrile]",470
19,"C[C@@H](c1nc2ccc(F)cc2cc1-c1cncc(F)c1)n1nc(C#N)c2c(N)ncnc21 [4-Amino-1-((S)-1-(6-fluoro-3-(5-fluoropyridin-3-yl)quinolin-2-yl)ethyl)-1H-pyrazolo[3,4-d]pyrimidine-3-carbonitrile]",25

# — US9873704B2, “Heterocyclic compounds and their uses” (Amgen Inc., priority 2009, dated 2018)
